Test results reported in BindingDB's records for doi:10.1016/j.bioorg.2016.01.007 (Universiti Teknologi Mara (Uitm), Puncak Alam Campus, 2016).
pIC50: −log10 of the molar value.

The compounds below were run against T1, Beta-glucuronidase (Bos taurus, UniProt A3KMY8) (assay: β-Glucuronidase Inhibition Assay).
T1 sequence (A3KMY8 whole entry): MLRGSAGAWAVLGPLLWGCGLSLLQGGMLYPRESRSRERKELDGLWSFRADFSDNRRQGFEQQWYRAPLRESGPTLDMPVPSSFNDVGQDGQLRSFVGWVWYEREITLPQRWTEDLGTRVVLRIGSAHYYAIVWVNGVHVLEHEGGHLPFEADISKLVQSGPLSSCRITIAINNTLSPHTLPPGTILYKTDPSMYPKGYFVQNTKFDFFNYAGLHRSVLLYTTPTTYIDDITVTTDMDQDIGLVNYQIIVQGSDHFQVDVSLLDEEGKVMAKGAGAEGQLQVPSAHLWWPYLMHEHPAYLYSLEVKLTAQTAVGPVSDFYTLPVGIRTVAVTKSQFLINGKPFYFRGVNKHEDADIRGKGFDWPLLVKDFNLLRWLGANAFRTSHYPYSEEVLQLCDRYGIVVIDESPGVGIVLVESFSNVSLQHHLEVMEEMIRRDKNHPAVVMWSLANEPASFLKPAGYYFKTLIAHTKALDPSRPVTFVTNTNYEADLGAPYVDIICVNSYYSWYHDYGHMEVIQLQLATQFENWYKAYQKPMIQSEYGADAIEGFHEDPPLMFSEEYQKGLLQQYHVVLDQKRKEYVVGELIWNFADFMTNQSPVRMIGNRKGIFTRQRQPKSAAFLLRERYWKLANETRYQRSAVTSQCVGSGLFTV
Procedure: The total reaction volume was set at 250 µL. The reaction mixture comprises of 185 µL of 0.1 M acetate buffer, 5 µL of test compound solution, 10 µL of enzyme solution and incubated at 37 °C for 30 min. […] All assays were carried out in triplicate.
Work on `COc1ccc(O)c(-c2nc3ncc(Cl)cc3[nH]2)c1` [2-(6-Chloro-1H-imidazo[4,5-b]pyridin-2-yl)-4-methoxyphenol (13)] yielded a pIC50 of 3.89.
`COc1ccc(-c2nc3ncc(Cl)cc3[nH]2)c(O)c1` [2-(6-Chloro-1H-imidazo[4,5-b]pyridin-2-yl)-5-methoxyphenol (19)] gave a pIC50 of 3.94.
Compound `Oc1cccc(-c2nc3ncc(Cl)cc3[nH]2)c1` [3-(6-Chloro-1H-imidazo[4,5-b]pyridin-2-yl)phenol (8)] has a pIC50 of 4.17.
For `Oc1ccc(-c2nc3ncc(Cl)cc3[nH]2)c(O)c1` [4-(6-Chloro-1H-imidazo[4,5-b]pyridin-2-yl)benzene-1,3-diol (2)], the pIC50 was 4.30.
With `Oc1ccc(-c2nc3ncc(Cl)cc3[nH]2)cc1` [4-(6-Chloro-1H-imidazo[4,5-b]pyridin-2-yl)phenol (26)] the pIC50 was 4.28.
